Values joined by “and” are separate entries in the source; they are usually repeats but may differ in a detail not shown here. Equal entries are not always repeated. Where two headings read alike, the source gives them in different places.
What was measured:
OCT1 [1] = biological target: T1, OCT1 (Homo sapiens, UniProt O15245); assay: Flow cytometric ASP+-uptake inhibition, HEK-OCT1; type: cell-based; details: HEK-OCT1; 1 μM ASP+; ± SEM (N = 3); read-out: IC50, inhibition of ASP+-uptake
T1 construct: containing the full length SLC22A1 cDNA (NM_003057) encoding the human OCT1 protein; expressed in transfected cells
T1 sequence (O15245 1-554): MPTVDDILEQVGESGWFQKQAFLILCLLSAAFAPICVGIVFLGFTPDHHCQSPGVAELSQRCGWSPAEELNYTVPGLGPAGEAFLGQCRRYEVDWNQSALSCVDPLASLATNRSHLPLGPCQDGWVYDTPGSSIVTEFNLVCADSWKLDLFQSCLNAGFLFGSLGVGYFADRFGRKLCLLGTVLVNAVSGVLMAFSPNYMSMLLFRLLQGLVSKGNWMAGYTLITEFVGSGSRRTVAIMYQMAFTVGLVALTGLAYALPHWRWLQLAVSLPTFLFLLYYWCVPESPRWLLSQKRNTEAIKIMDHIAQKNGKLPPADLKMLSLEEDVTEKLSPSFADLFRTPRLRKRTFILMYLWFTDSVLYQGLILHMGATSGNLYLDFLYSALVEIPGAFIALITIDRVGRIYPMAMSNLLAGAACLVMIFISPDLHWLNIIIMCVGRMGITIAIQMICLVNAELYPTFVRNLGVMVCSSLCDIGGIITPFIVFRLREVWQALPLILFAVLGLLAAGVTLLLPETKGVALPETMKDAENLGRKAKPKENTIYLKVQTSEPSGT
Description: (§1) The previously described fluorescent substrate of organic cation transporters, 4-(4-dimethylaminostyryl)-N-methylpyridinium (ASP^+), was used to determine the function of OCT1 and OCT3 by flow cytometry in the absence and the presence of bendamustine and selected bendamustine esters. HEK293 cells expressing the transporter of interest were trypsinized and washed twice with PBS, prior to re-suspension of 0.5 · 10^6 cells in 500 μL of PBS containing 2% (v/v) FCS. The cells were incubated with ASP^+ (100 μM stock solution in PBS containing 10% DMSO) for 5 minutes, allowing for cellular accumulation, and subsequently analyzed with a FACSCalibur flow cytometer. ASP^+ was excited at 488 nm and the fluorescence was measured using a 530/30 nm and a 585/42 band-pass filter. At least 1 · 10^4 single cells were analyzed by appropriate FSC/SSC gating.
(§2) The cells were pre-incubated with the respective test compound at different concentrations at room temperature for 10 minutes. Afterwards, ASP^+ was added to a final concentration of 1 μM, and the samples were incubated at 37°C in the dark for 5 minutes. Subsequently, the cells were washed, re-suspended in ice-cold PBS/FCS and stored on ice in the dark until measurement.
(§3) The normalized mean fluorescence intensities of the OCT expressing cells, set to 100% in the absence of an inhibitor, were calculated by subtracting the mean fluorescence intensity of unspecific ASP^+ uptake into HEK-Co control cells. The normalized fluorescence intensities in the presence of an inhibitor were plotted against the logarithm of the concentrations of the test compounds to calculate IC50 values. The “log (inhibitor) vs. normalized response-variable slope” equation of GraphPad Prism 5.01 was used for this purpose.

OCT3 [2] = test system: OCT3; set-up: method as in PMID 23982114; details: microtiter assay; cited from earlier work
OCT3 [3] = biological target: T2, OCT3 (Homo sapiens, UniProt O75751); assay: Flow cytometric ASP+-uptake inhibition, HEK-OCT3; type: cell-based; details: HEK-OCT3; 1 μM ASP+; ± SEM (N = 3); read-out: IC50, inhibition of ASP+-uptake
T2 construct: expressed in transfected cells; host or cells: HEK293 (HEK-OCT3)
T2 sequence (O75751 1-556): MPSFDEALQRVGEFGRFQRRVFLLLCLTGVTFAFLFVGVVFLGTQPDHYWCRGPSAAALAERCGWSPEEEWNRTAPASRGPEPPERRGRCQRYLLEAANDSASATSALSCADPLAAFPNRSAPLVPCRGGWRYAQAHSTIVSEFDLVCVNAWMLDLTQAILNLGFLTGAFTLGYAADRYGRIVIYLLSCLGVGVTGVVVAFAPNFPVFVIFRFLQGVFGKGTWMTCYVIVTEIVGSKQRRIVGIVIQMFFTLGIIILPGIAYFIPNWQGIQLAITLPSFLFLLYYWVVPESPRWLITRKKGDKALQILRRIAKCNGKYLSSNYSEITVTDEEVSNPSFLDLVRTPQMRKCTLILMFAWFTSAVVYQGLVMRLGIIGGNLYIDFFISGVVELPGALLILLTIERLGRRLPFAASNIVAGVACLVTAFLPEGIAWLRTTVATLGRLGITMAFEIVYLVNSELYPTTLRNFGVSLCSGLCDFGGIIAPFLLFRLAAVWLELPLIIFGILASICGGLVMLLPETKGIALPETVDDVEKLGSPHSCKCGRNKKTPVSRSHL
Description: as §1, §2, §3

OCT1 [4] = biological target: T1, OCT1; set-up: method as in PMID 15389554; details: microtiter assay; cited from earlier work
OCT1 [5] = biological target: T1, OCT1; assay: Confocal laser scanning microscopy of ASP+ uptake, HEK-OCT1; type: cell-based; details: compound 5 15 μM; TPA 200 μM; ASP+ 1 μM
Description: (§4) HEK-Co, HEK-OCT1 and HEK-OCT3 cells were seeded into 8-well μ-Slides (Ibidi, Munich, Germany) (2 · 10^4 cells/well) and allowed to attach for 48 hours. Prior to the staining procedure, the medium was replaced by PBS and the DNA probe Draq5 (5 μM) (Biostatus, Shepshed, UK) was added to each well. […] Subsequently, ASP^+ was added to reach a concentration of 1 μM, and the cells were incubated for 5 minutes in the dark. Imaging was performed with an Axiovert 200 M confocal microscope coupled to a Zeiss LSM 510 scanning device (Carl Zeiss, Oberkochen, Germany) using a Plan-Apochromat 63x/1.40 oil immersion objective. Draq5 was excited at 633 nm and fluorescence was detected using a 650 nm long-pass filter, ASP^+ was excited at 488 nm and detected using a 565/35 nm band-pass filter.

OCT3 [6] = biological target: T2, OCT3; assay: Confocal laser scanning microscopy of ASP+ uptake, HEK-OCT3; type: cell-based; details: compound 5 15 μM; TPA 200 μM; ASP+ 1 μM
Description: as §4

OCT1 [7] = details: cited from earlier work
OCT3 [8] = test system: OCT3; set-up: method as in PMID 23506881; details: cited from earlier work

CCCCC[N+](CCCCC)(CCCCC)CCCCC [TPA, tetrapentyl ammonium, reference compound]
IC50 (OCT1 [1]): 6.04 µM and 6 µM | IC50 (OCT3 [2]): 28 µM | IC50 (OCT3 [3]): 19.9 ± 2.2 µM | IC50 (OCT1 [4]): 7.9 µM | effect on OCT1 activity (ASP+ uptake, imaging) (OCT1 [5]): inhibited | effect on OCT3 activity (ASP+ uptake, imaging) (OCT3 [6]): inhibited

N.N.[Cl][Pt][Cl] [cisplatin]
IC50 (OCT1 [7]): > 100 µM

O=C1c2c(O)ccc(O)c2C(=O)c2c(NCCNCCO)ccc(NCCNCCO)c21 [mitoxantrone]
IC50 (OCT3 [8]): 440 µM

From PMC4721923 (PLoS ONE, 2015)
